Experimental data taken from the supplement of paper PMC4862054.

What was measured:
Test in all cases: normalised response (% of control), CellTiter-Glo; higher = more viable cells (100 = DMSO, 0 = benzethonium chloride kill control)
Conditions in all cases: incubation time: 72 h
MDA-MB-436 = test system: MDA-MB-436
Procedure, shortened: (§1)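 CellTox Green fluorescence (485/520 nm) and, after 10 min at room temperature, CellTiter-Glo luminescence were read from breast cancer cell lines incubated 72 h in 384-well plates. Cells were seeded as 20 µl suspension onto compound at 5 concentrations in 10-fold steps over a 10,000-fold range chosen per compound. Each plate was normalised to 0.1 % DMSO (100) and a positive kill control (0). Values are normalised signals, one per concentration.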

CAL-148 = test system: CAL-148
Procedure, shortened: as §1

MDA-MB-453 = test system: MDA-MB-453
Procedure, shortened: as §1

MCF-10A = test system: MCF-10A
Procedure, shortened: as §1

CAL-120 = test system: CAL-120
Procedure, shortened: as §1

CAL-51 = test system: CAL-51
Procedure, shortened: as §1

DU-4475 = test system: DU-4475
Procedure, shortened: as §1

HDQ-P1 = test system: HDQ-P1
Procedure, shortened: as §1

MFM-223 = test system: MFM-223
Procedure, shortened: as §1

HCC1937 = test system: HCC1937
Procedure, shortened: as §1

MDA-MB-231 = test system: MDA-MB-231
Procedure, shortened: as §1

SK-BR-3 = test system: SK-BR-3
Procedure, shortened: as §1

CAL-85-1 = test system: CAL-85-1
Procedure, shortened: as §1

BT-474 = test system: BT-474
Procedure, shortened: as §1

Hs578T = test system: Hs578T
Procedure, shortened: as §1

MDA-MB-468 = test system: MDA-MB-468
Procedure, shortened: as §1

HCC1143 = test system: HCC1143
Procedure, shortened: as §1

HCC1599 = test system: HCC1599
Procedure, shortened: as §1

BT-549 = test system: BT-549
Procedure, shortened: as §1

| Compound | normalised response (MDA-MB-436) | normalised response (CAL-148) | normalised response (MDA-MB-453) | normalised response (MCF-10A) | normalised response (CAL-120) | normalised response (CAL-51) | normalised response (DU-4475) | normalised response (HDQ-P1) | normalised response (MFM-223) | normalised response (HCC1937) | normalised response (MDA-MB-231) | normalised response (SK-BR-3) | normalised response (CAL-85-1) | normalised response (BT-474) | normalised response (Hs578T) | normalised response (MDA-MB-468) | normalised response (HCC1143) | normalised response (HCC1599) | normalised response (BT-549) |
| --- | --- | --- | --- | --- | --- | --- | --- | --- | --- | --- | --- | --- | --- | --- | --- | --- | --- | --- | --- |
| CC(C)(C#N)c1cc(Cn2cncn2)cc(C(C)(C)C#N)c1 [Anastrozole] (10 nM) | 99.4% | 99.3% | 104% | 110% | 96.2% | 93.7% | 104% | 94.3% | 104% | 100% | 100% | 105% | 94.9% | 101% | 105% | 98.8% | 103% | 102% | 99% |
| CC(C)c1c(C(=O)Nc2ccccc2)c(-c2ccccc2)c(-c2ccc(F)cc2)n1CC[C@@H](O)C[C@@H](O)CC(=O)O [Atorvastatin] (1 nM) | 95.5% | 103% | 107% | 99.1% | 92.8% | 89.8% | 100% | 95.9% | 97.6% | 98.1% | 95.2% | 103% | 98.7% | 94% | 98.9% | 94.2% | 98.2% | 96.5% | 96.9% |
| CC(C)c1c(C(=O)Nc2ccccc2)c(-c2ccccc2)c(-c2ccc(F)cc2)n1CC[C@@H](O)C[C@@H](O)CC(=O)O [Atorvastatin] (10 nM) | 96.5% | 101% | 104% | 100% | 96.8% | 76.1% | 98.7% | 101% | 102% | 99.7% | 96.9% | 102% | 98.9% | 100% | 101% | 104% | 103% | 104% | 90% |
| O=C(O)CCCc1ccc(N(CCCl)CCCl)cc1 [Chlorambucil] (1 nM) | 132% | 96.8% | 118% | 100% | 97.1% | 128% | 102% | 101% | 102% | 102% | 101% | 95.6% | 99.4% | 102% | 107% | 96.9% | 102% | 98.4% | 102% |
| O=C(O)CCCc1ccc(N(CCCl)CCCl)cc1 [Chlorambucil] (10 nM) | 104% | 101% | 101% | 93.6% | 97.2% | 95.2% | 101% | 99.7% | 108% | 98.8% | 106% | – | 108% | 99.1% | 103% | 101% | 102% | 97.8% | 102% |
| Cn1c(=O)n(-c2ccc(C(C)(C)C#N)cc2)c2c3cc(-c4cnc5ccccc5c4)ccc3ncc21 [Dactolisib] (0.1 nM) | 99.6% | 102% | 109% | 105% | 97.4% | 107% | 103% | 102% | 108% | 98.8% | 105% | 111% | 101% | 104% | 102% | 110% | 97.4% | 122% | 100% |
| Cn1c(=O)n(-c2ccc(C(C)(C)C#N)cc2)c2c3cc(-c4cnc5ccccc5c4)ccc3ncc21 [Dactolisib] (1 nM) | 95.8% | 116% | 110% | 113% | 90.2% | 83.4% | 107% | 95% | 108% | 98.7% | 107% | – | 101% | 106% | 95.7% | 103% | 98.5% | 95.8% | 101% |
| CO[C@H]1C[C@@H]2CC[C@@H](C)[C@@](O)(O2)C(=O)C(=O)N2CCCC[C@H]2C(=O)O[C@H]([C@H](C)C[C@@H]2CC[C@@H](OCCO)[C@H](OC)C2)CC(=O)[C@H](C)/C=C(\C)[C@@H](O)[C@@H](OC)C(=O)[C@H](C)C[C@H](C)/C=C/C=C/C=C/1C [Everolimus] (0.01 nM) | 95.7% | 90.1% | 99.3% | 93.6% | 97.8% | 132% | 98.7% | 96.1% | 95.3% | 95.9% | 98.9% | 93.4% | 95.3% | 103% | 91.2% | 105% | 93% | 107% | 103% |
| C/C(=C\c1csc(C)n1)[C@@H]1C[C@@H]2O[C@]2(C)CCC[C@H](C)[C@H](O)[C@@H](C)C(=O)C(C)(C)[C@@H](O)CC(=O)O1 [Patupilone] (1 nM) | 108% | 106% | 107% | 106% | 103% | 99.2% | 106% | 97.3% | 101% | 103% | 107% | – | 105% | 104% | 104% | 109% | 111% | 117% | 97.3% |
| CC[C@]1(O)C[C@H]2CN(CCc3c([nH]c4ccccc34)[C@@](C(=O)OC)(c3cc4c(cc3OC)N(C=O)[C@H]3[C@@](O)(C(=O)OC)[C@H](OC(C)=O)[C@]5(CC)C=CCN6CC[C@]43[C@@H]65)C2)C1 [Vincristine] (1 nM) | 106% | 110% | 104% | 104% | 96.4% | 91.4% | 106% | 97.6% | 104% | 96.3% | 99.4% | – | 102% | 100% | 105% | 95.3% | 104% | 113% | 87.6% |
